In patent US20260152487A1 (Sitryx Therapeutics Limited, priority 2021, published 2026):
Read-outs that look alike come from different tables or passages of the source.

Legend:
[1] = biological target: T1, recombinant human PKM2 (Homo sapiens, UniProt P14618); assay: Human PKM2 activation assay (Kinase-Glo Plus luminescent detection of generated ATP); assay type: biochemical; details: for Emax: read-out: hPKM2 Emax; for EC50: read-out: hPKM2 EC50
T1 construct: His (N); purchased R&D Systems
Procedure, shortened: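 N-His-tagged recombinant hPKM2 ([…]) with PEP and ADP was incubated with compound for 60 min at 26 °C, shaking, in 50 mM imidazole, 50 mM KCl, 7 mM MgCl2, 0.01% Tween20, 0.05% BSA, pH 7.2. ATP produced was read by Kinase-Glo Plus luminescence after 15 min.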

[2] = biological target: T2, recombinant human PKLR (Homo sapiens, UniProt P30613); assay: Human PKLR activation assay (Kinase-Glo Plus luminescent detection of generated ATP); assay type: biochemical; details: for EC50: activation of recombinant human PKLR, 4-parameter logistic fit, read-out: hPKLR EC50; for Emax: percentage activation normalised to DMSO vehicle (LOW) and 5 μM TEPP-46 (HIGH) controls, read-out: hPKLR Emax (%)
T2 construct: His (N); purchased R&D Systems
T2 sequence (P30613 whole entry): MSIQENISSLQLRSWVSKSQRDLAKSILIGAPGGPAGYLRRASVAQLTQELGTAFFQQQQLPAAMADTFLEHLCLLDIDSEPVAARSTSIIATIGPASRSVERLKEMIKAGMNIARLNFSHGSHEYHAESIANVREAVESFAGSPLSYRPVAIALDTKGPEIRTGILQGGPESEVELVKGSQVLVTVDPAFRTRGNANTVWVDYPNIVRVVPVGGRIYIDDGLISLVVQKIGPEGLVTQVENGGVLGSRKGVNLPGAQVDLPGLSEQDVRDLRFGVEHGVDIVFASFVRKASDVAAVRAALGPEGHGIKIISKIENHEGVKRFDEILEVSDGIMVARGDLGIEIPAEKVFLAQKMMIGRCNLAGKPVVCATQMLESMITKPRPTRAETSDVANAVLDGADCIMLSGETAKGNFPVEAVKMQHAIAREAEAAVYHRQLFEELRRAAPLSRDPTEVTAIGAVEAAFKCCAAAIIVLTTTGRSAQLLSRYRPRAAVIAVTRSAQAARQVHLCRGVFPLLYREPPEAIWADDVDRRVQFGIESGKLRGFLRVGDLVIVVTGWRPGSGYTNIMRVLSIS
Protocol: Compound activation of recombinant human PKLR pyruvate kinase activity was determined by biochemical assay. N-terminal His-tagged enzyme was sourced from R&D Systems and its substrates phosphoenolpyruvate (PEP) and ADP from Sigma-Aldrich and 2Bscientific Ltd, respectively. The Kinase-Glo® Plus luminescence assay was from Promega. All other reagents were from Sigma-Aldrich. Test Compounds were prepared as 10 mM DMSO stocks and dilution series prepared in DMSO for direct dilution into Assay Buffer comprising 50 mM imidazole, 50 mM KCl, 7 mM MgCl2, 0.01% Tween20, 0.05% BSA (pH 7.2).
Human PKLR was diluted into Assay Buffer to a final concentration of 5 pM. Enzyme-Assay Buffer mix was dispensed into 384-well shallow-well white-walled plates and Test Compounds added by acoustic dispense (Echo®, Labcyte Inc).
After 60 minutes' incubation on an orbital shaker (300 rpm, 26° C.), enzyme activity was quantified by the luminescent detection of generated ATP. Kinase-Glo® Plus reagent was added to each well and the plates incubated for a further 15 minutes on an orbital shaker in the dark (300 rpm, 26° C.) before luminescence measurement on a plate reader (PHERAstar® FSX, BMG Labtech).
Percentage activation was calculated by normalising […] signals to plate LOW (DMSO vehicle) and HIGH (5 μM TEPP-46) controls. EC50 and Emax values were determined from 4-parameter logistic fits of compound concentration-response curves.

[3] = percentage activation normalised to DMSO vehicle (LOW) and 5 μM TEPP-46 (HIGH)
[4] = recombinant human PKM2 activation, 4-parameter logistic fit

T1 sequence (P14618 2-531 limits assumed): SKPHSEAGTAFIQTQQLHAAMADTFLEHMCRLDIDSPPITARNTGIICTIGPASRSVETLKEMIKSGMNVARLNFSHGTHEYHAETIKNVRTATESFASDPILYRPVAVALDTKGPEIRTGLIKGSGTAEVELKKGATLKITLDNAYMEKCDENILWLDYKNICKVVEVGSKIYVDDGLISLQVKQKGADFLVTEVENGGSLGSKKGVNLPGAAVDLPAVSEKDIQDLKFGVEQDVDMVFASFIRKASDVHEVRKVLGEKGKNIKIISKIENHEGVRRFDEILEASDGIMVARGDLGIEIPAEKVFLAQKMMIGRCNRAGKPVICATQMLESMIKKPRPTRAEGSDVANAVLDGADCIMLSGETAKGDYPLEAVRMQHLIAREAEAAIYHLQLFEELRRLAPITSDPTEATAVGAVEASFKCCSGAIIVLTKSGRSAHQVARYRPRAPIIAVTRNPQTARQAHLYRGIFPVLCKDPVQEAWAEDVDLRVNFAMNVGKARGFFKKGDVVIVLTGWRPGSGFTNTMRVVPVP

Cn1ccc(Cn2ncc3cc(S(=O)(=O)c4ccccc4)c(NCCO)cc3c2=O)n1 [Example 244, 7-((2-hydroxyethyl)amino)-2-((1-methyl-1H-pyrazol-3-yl)methyl)-6-(phenylsulfonyl)phthalazin-1(2H)-one]
Emax [1, 3]: 105%
EC50 [1, 4]: 206 nM
EC50 [2]: 27.4 nM
Emax [2]: 123%

Cc1cc(F)c(Cn2ncc3cc(S(=O)(=O)c4cn[nH]c4)ccc3c2=O)nc1C [Example 321]
Emax [1, 3]: 100%
EC50 [1, 4]: 73.4 nM
EC50 [2]: 6.57 nM
Emax [2]: 134%

O=c1c2ccc(S(=O)(=O)c3cnn(CCO)c3)cc2cnn1Cc1cc[nH]n1 [Example 241, 2-((1H-pyrazol-3-yl)methyl)-6-((1-(2-hydroxyethyl)-1H-pyrazol-4-yl)sulfonyl)phthalazin-1(2H)-one]
Emax [1, 3]: 106%
EC50 [1, 4]: 118 nM
EC50 [2]: 27.5 nM
Emax [2]: 129%

Cn1ccc(Cn2ncc3cc(S(=O)(=O)c4ccccc4)c(F)cc3c2=O)n1 [Example 242, 7-fluoro-2-((1-methyl-1H-pyrazol-3-yl)methyl)-6-(phenylsulfonyl)phthalazin-1(2H)-one]
Emax [1, 3]: 107%
EC50 [1, 4]: 102 nM
EC50 [2]: 22.2 nM
Emax [2]: 134%

COc1ccc(Cn2ncc3cc([S@@](=N)(=O)c4ccc5c(c4)CCO5)ccc3c2=O)cn1 (single isomer, unassigned) [Example 128]
Emax [1, 3]: 80.8%
EC50 [1, 4]: 34.5 nM
EC50 [2]: 7.2 nM
Emax [2]: 132%

O=c1c2ccc(S(=O)(=O)c3cnc4occc4c3)cc2cnn1Cc1cc[nH]n1 [Example 225, 2-((1H-pyrazol-3-yl)methyl)-6-(furo[2,3-b]pyridin-5-ylsulfonyl)phthalazin-1(2H)-one]
Emax [1, 3]: 114%
EC50 [1, 4]: 50.3 nM
EC50 [2]: 8.6 nM
Emax [2]: 117%

COc1ccc([S@](=N)(=O)c2ccc3c(=O)n(Cc4ccc(OC)nc4)ncc3c2)cc1 (single isomer, unassigned) [Example 192]
hPKM2 Emax [1, 3]: 59.1%
EC50 [1, 4]: 106 nM
EC50 [2]: 241 nM
Emax [2]: 129%

O=c1c2ccc(S(=O)(=O)c3ccc4occc4n3)cc2cnn1Cc1cc[nH]n1 [Example 223, 2-((1H-pyrazol-3-yl)methyl)-6-(furo[3,2-b]pyridin-5-ylsulfonyl)phthalazin-1(2H)-one]
Emax [1, 3]: 107%
EC50 [1, 4]: 45 nM
EC50 [2]: 4.9 nM
Emax [2]: 132%

Cc1cccc(Cn2ncc3cc(S(=O)(=O)c4cnn(C5CC5)c4)ccc3c2=O)n1 [Example 259, 6-((1-cyclopropyl-1H-pyrazol-4-yl)sulfonyl)-2-((6-methylpyridin-2-yl)methyl)phthalazin-1(2H)-one]
Emax [1, 3]: 96.7%
EC50 [1, 4]: 46.1 nM
EC50 [2]: 13.1 nM
Emax [2]: 123%

O=c1c2ccc(S(=O)(=O)c3ccc4c(c3)OCCO4)cc2cnn1Cc1ccn(CCO)n1 [Example 206, 6-((2,3-dihydrobenzo[b][1,4]dioxin-6-yl)sulfonyl)-2-((1-(2-hydroxyethyl)-1H-pyrazol-3-yl)methyl)phthalazin-1(2H)-one]
Emax [1, 3]: 98.7%
EC50 [1, 4]: 50 nM
EC50 [2]: 10.3 nM
Emax [2]: 128%

O=c1c2ccc(S(=O)(=O)c3cnn(C4CC4)c3)cc2cnn1Cc1cc[nH]n1 [Example 228, 2-((1H-pyrazol-3-yl)methyl)-6-((1-cyclopropyl-1H-pyrazol-4-yl)sulfonyl)phthalazin-1(2H)-one]
EC50 ([1]; data from repeat experiments (*)): 41.5 nM
Emax ([1]; line of the repeat experiment (EC50 marked *)): 112%
Emax [1, 3]: 116%
EC50 [1, 4]: 40.4 nM
EC50 [2]: 21.2 nM
Emax [2]: 119%

COc1ccc(S(=O)(=O)c2ccc3c(=O)n(Cc4ncccc4O)ncc3c2)cc1 [Example 113, 2-((3-hydroxypyridin-2-yl)methyl)-6-(4-methoxyphenylsulfonyl)phthalazin-1(2H)-one]
Emax [1, 3]: 133%
EC50 [1, 4]: 163 nM
EC50 [2]: 9.64 nM
Emax [2]: 118%

O=c1c2ccc(S(=O)(=O)c3ccc4c(c3)NCCO4)cc2cnn1Cc1cc[nH]n1 [Example 221, 2-((1H-pyrazol-3-yl)methyl)-6-((3,4-dihydro-2H-benzo[b][1,4]oxazin-6-yl)sulfonyl)phthalazin-1(2H)-one]
Emax [1, 3]: 105%
EC50 [1, 4]: 42.8 nM
EC50 [2]: 3.4 nM
Emax [2]: 134%

Cn1cc(S(=O)(=O)c2ccc3c(=O)n(Cc4cc[nH]n4)ncc3c2)cn1 [Example 240, 2-((1H-pyrazol-3-yl)methyl)-6-((1-methyl-1H-pyrazol-4-yl)sulfonyl)phthalazin-1(2H)-one]
Emax [1, 3]: 107%
EC50 [1, 4]: 159 nM
EC50 [2]: 30.3 nM
Emax [2]: 125%

Cn1ccc(Cn2ncc3cc(S(=O)(=O)c4cnn(C5CC5)c4)ccc3c2=O)n1 [Example 194, 6-(1-cyclopropyl-1H-pyrazol-4-ylsulfonyl)-2-((1-methyl-1H-pyrazol-3-yl)methyl)phthalazin-1(2H)-one]
Emax [1, 3]: 113%
EC50 [1, 4]: 77.4 nM
EC50 [2]: 106 nM
Emax [2]: 112%

Cc1[nH]nc(Cn2ncc3cc(S(=O)(=O)c4cn[nH]c4)ccc3c2=O)c1Cl [Example 314]
Emax [1, 3]: 94.9%
EC50 [1, 4]: 46.3 nM
EC50 [2]: 4.27 nM
Emax [2]: 114%

O=c1c2ccc(S(=O)(=O)c3cnn(C4CC4)c3)cc2cnn1Cc1cccnc1O [Example 193, 6-(1-cyclopropyl-1H-pyrazol-4-ylsulfonyl)-2-((2-hydroxypyridin-3-yl)methyl)phthalazin-1(2H)-one]
Emax [1, 3]: 84.9%
EC50 [1, 4]: 161 nM
EC50 [2]: 86.3 nM
Emax [2]: 111%

O=c1c2ccc(S(=O)(=O)c3cn[nH]c3)cc2cnn1Cc1cccc(C2CC2)n1 [Example 287, 6-((1H-pyrazol-4-yl)sulfonyl)-2-((6-cyclopropylpyridin-2-yl)methyl)phthalazin-1(2H)-one]
Emax [1, 3]: 103%
EC50 [1, 4]: 45.2 nM
EC50 [2]: 13 nM
Emax [2]: 110%

CC(O)c1nc(S(=O)(=O)c2ccc3c(=O)n(Cc4ccc5c(n4)CCO5)ncc3c2)cs1 (stereo not shown) [Example 327]
Emax [1, 3]: 10%
EC50 [1, 4]: 36.9 nM
EC50 [2]: 3.71 nM
Emax [2]: 124%

Cc1nc(Cn2ncc3cc(S(=O)(=O)c4cn[nH]c4)ccc3c2=O)ccc1F [Example 251, 6-((1H-pyrazol-4-yl)sulfonyl)-2-((5-fluoro-6-methylpyridin-2-yl)methyl)phthalazin-1(2H)-one]
Emax [1, 3]: 116%
EC50 [1, 4]: 111 nM
EC50 [2]: 11.3 nM
Emax [2]: 111%

Nc1cccc(Cn2ncc3cc(S(=O)(=O)c4ccccc4)ccc3c2=O)c1 [Example 141, 2-(3-aminobenzyl)-6-(phenylsulfonyl)phthalazin-1(2H)-one]
Emax [1, 3]: 113%
EC50 [1, 4]: 78.3 nM
EC50 [2]: 8 nM
Emax [2]: 108%

C[C@H]1Cc2cc(S(=O)(=O)c3ccc4c(=O)n(Cc5ccn(C)n5)ncc4c3)ccc2O1 [Example 219, (S)-2-((1-methyl-1H-pyrazol-3-yl)methyl)-6-((2-methyl-2,3-dihydrobenzofuran-5-yl)sulfonyl)phthalazin-1(2H)-one]
Emax [1, 3]: 106%
EC50 [1, 4]: 44.2 nM
EC50 [2]: 10.2 nM
Emax [2]: 124%

O=c1c2ccc(S(=O)(=O)c3ccc4c(c3)NCCO4)cc2cnn1Cc1ccn(CCO)n1 [Example 202, 6-((3,4-dihydro-2H-benzo[b][1,4]oxazin-6-yl)sulfonyl)-2-((1-(2-hydroxyethyl)-1H-pyrazol-3-yl)methyl)phthalazin-1(2H)-one]
Emax [1, 3]: 109%
EC50 [1, 4]: 91.7 nM
EC50 [2]: 7.9 nM
Emax [2]: 125%

COc1ccc(Cn2ncc3cc(S(=O)(=O)c4ccc(C)cc4)ccc3c2=O)cn1 [Example 150, 2-((6-methoxypyridin-3-yl)methyl)-6-tosylphthalazin-1(2H)-one]
Emax [1, 3]: 90.4%
EC50 [1, 4]: 44.3 nM
EC50 [2]: 6.4 nM
Emax [2]: 85.4%

O=c1c2ccc(S(=O)(=O)c3cnn(CCO)c3)cc2cnn1Cc1ccn(C2CC2)n1 [Example 272, 2-((1-cyclopropyl-1H-pyrazol-3-yl)methyl)-6-((1-(2-hydroxyethyl)-1H-pyrazol-4-yl)sulfonyl)phthalazin-1(2H)-one]
Emax [1, 3]: 91.3%
EC50 [1, 4]: 93.4 nM
EC50 [2]: 39.1 nM
Emax [2]: 124%

Cc1cccc(Cn2ncc3cc(S(=O)(=O)c4cn[nH]c4)ccc3c2=O)n1 [Example 238, 6-((1H-pyrazol-4-yl)sulfonyl)-2-((6-methylpyridin-2-yl)methyl)phthalazin-1(2H)-one]
Emax [1, 3]: 108%
EC50 [1, 4]: 125 nM
EC50 [2]: 14.4 nM
Emax [2]: 127%
